Values quoted from earlier work, collected in patent US20050227966A1 (Wyeth, priority 2004, published 2005).

Assays:
[1] = system: MCF-7 cell line (human breast cancer cell line); conditions: MCF-7 cells
[2] = system: ovariectomized rat model of osteopenia
[3] = system: uterine response; conditions: preclinical models of uterine stimulation

Question: Which estrogen agonist/antagonist behaviour [1] does the source give for `Cc1c(-c2ccc(O)cc2)n(Cc2ccc(OCCN3CCCCCC3)cc2)c2ccc(O)cc12` [bazedoxifene acetate, 1-[4-(2-azepan-1-yl-ethoxy)-benzyl]-2-(4-hydroxy-phenyl)-3-methyl-1H-indol-5-ol acetic acid] here?
Answer: estrogen antagonist

Question: And the “effect in preventing bone loss and reducing cholesterol” value [2]?
Answer: estrogen agonist-like effect

Question: And the “stimulation of uterine response” value [3]?
Answer: little or no stimulation
